Data on two compounds can be found in patent US12697325B2 (TENNOR THERAPEUTICS (SUZHOU) LIMITED, priority 2021, dated 2026).

The test system of series [1] is clinical strains of Acinetobacter baumannii. Nature of the series: Minimum inhibitory concentration (CLSI M07), Example 1, clinical strains. The format is cell-based. Particulars: combination MIC = sum of the concentrations of the two compounds. How it is done: (§1) The minimum inhibitory concentration (MIC) was determined in accordance with the requirements of the Clinical and Laboratory Standards Institute (CLSI) M07 (for aerobic bacteria).
3.1 The compounds were diluted with water up to 100 times of the highest concentration tested.
The dilution steps are as follows: first dilute the compounds or antibiotics to 100 times of the highest final concentration tested, and then:
A 50 μL of sterile water and 50 μL of avibactam sodium mother liquid were added into the A row of the second 96-well plate, and 50 μL of water was added into each of the remaining wells. A 50 μL of liquid was pipetted from the A row and added into the B row; after being pipetted up and down to even, 50 μL of the solution was pipetted and added to the C row, and diluted in a 2-fold gradient in turn for a total of 6 times and then, 50 μL was removed from each well of the G row to obtain the compound solution diluted to a 2-fold gradient and then 4 μL was transferred to a 96-well test plate.
Aerobic bacteria: the strains were inoculated on MHA one day in advance and incubated overnight at 37° C. On the day of the assay, 5-6 single colonies were picked and suspended evenly in saline, and the bacterial concentration was adjusted to the turbidity of 0.5 McFarland standard (concentration is about 1×10^8 CFU/mL). The bacterial suspension was diluted 200 times with the corresponding liquid culture medium (Table 1), i.e., at a bacterial concentration of ~5×10^5 CFU/ml, then 192 μL was transferred to a 96-well round bottom plate to obtain the test plate. Then, the 96-well round bottom plate obtained above was placed into an incubator at 37° C. and 85% humidity to incubate for 20 h.

Series [2] is described as follows: Pharmacokinetics in plasma and bronchoalveolar lavage fluid of female CD-1 mice. The series is classed as in vivo. Particulars: mouse, in vivo. How it is done:
An appropriate amount of the test drug was accurately weighed and mixed with the appropriate volume of vehicle (5% DMSO+0.5% Tween 80 in normal saline) to obtain a clear solution for the test in Table 9. The formulation solution for injection was prepared to sterile filtration through a 0.22 μm filter prior to administration. The mice were dosed with the drug within 30 min after the formulated solution for injection was prepared. A 1.5 mL of the formulation solution for injection was transferred into a polypropylene microcentrifuge tube for dose verification by LC/UV or LC-MS/MS.
All blood samples were transferred to pre-frozen EDTA-K2 tubes and placed on wet ice until centrifugation. […]
Plasma: approximately 100 μL of blood sample was transferred into pre-cooled commercial EDTA-K2 tubes and placed on wet ice until centrifugation. After the blood samples were centrifuged at approximately 4° C. and 3, 200 g for 10 min, plasma was collected and transferred to pre-labeled 96-well plates or polypropylene tubes, flash frozen on dry ice, and stored at ≤−60° C. until the analysis by LC-MS/MS.
Serum: approximately 100 μL of blood sample was transferred into a tube without anticoagulant and placed on wet ice for approximately 30 min and centrifuged at 4° C. and 3,000 g for 10 min, and the serum was collected and transferred into pre-labeled PP tubes placed on wet ice. After the completion of all the collections, serum samples were stored at −60° C. until being sent to the animal experimental team to determine urea concentration.
Bronchoalveolar lavage fluid (BALF): pre-cooled tracheo-alveolar lavage fluid was injected into the trachea or predefined bronchi. After a full expansion of the lung tissue, the lavage fluid was slowly drawn out with a syringe 30 s later. The lung was lavaged three times. During the last lavage, the lung tissue was gently squeezed to restore the fluid. To prevent contamination of other lung tissues, the corresponding bronchi were ligated. Both lungs of the mice were perfused with 0.8 mL.
[…] Approximately 200 μL of the BALF samples were transferred into a polypropylene tube, rapidly frozen on dry ice, maintained at ≤−60° C., and sent to the animal experimental team to determine urea concentration. The remaining BALF samples (approximately 600 μL) were rapidly frozen on dry ice and maintained at ≤−60° C. until being submitted for drug concentration analysis by LC-MS/MS.

Series [3] concerns Acinetobacter baumannii strains. Nature of the series: Minimum inhibitory concentration (CLSI M07), Example 2, 20 strains. The format is cell-based. Particulars: for MIC of the strain BAA-1795 (component in the combination): sulbactam/avibactam 4:1, concentration of the named component. How it is done:
as §1
3.1 The compounds were diluted with DMSO up to 100 times of the highest concentration tested.
The steps of manual dilution are as follows (example): firstly, the compound or antibiotic was diluted to 100 times of the maximum final concentration tested, then 60 μL of compound mother liquor was added to the first column of the 96-well plate, and 30 μL of DMSO was added to each well in the second to the 12th column; 30 μL of the liquid was transferred from the first column to the second column. After being pipetted up and down to even, 30 μL was transferred to the third column, and was diluted in sequence at a 2-fold gradient for a total of 10 times; then 30 μL was removed from each well in the 11th column, then a compound solution diluted at 2-fold gradient was obtained and 1 μL was transferred to a 96-well test plate.
Aerobic bacteria: the strains were inoculated on MHA one day in advance and incubated overnight at 37° C. On the day of the assay, 5-6 single colonies were picked and suspended evenly in saline, and the bacterial concentration was adjusted to the turbidity of 0.5 McFarland standard (concentration is about 1×10^8 CFU/mL). The bacterial suspension was diluted at 200-fold with the corresponding liquid culture medium (Table 1), i.e., the bacterial concentration was ~5×10^5 CFU/ml, and then 100 μL of the liquid was transferred to a 96-well round bottom plate (the 96-well plate with compound prepared in 4.2, Echo method) to obtain the test plate. If the compound was manually diluted, then 99 μL of the solution was transferred into a 96-well round bottom plate. The 96-well round bottom plate obtained above was placed into an incubator at 37° C. and 85% humidity to incubate for 20 h.

The conditions of series [4]: 2 g, q8 h via infusion for 3 h; cited from earlier work.
For series [5] the following is noted: cited from earlier work.

Molecules are shown by their SMILES.

One may read the MIC50 as an inhibitory concentration at the 50% level, which refers to growth in some studies and to a panel of isolates in others. As usually defined, the MIC90 is an inhibitory concentration at the 90% level, which refers to growth in some studies and to a panel of isolates in others. For orientation: MIC means the smallest concentration in the dilution series that meets the test's criterion for growth inhibition. Turning to `NC(=O)[C@@H]1CC[C@@H]2CN1C(=O)N2OS(=O)(=O)[O-].[Na+]` [Avibactam sodium, avibactam sodium], the MIC50 in series [1] is above 32 µg/mL; in series [3] (Example 2, 20 strains), above 128 µg/mL. The MIC90 was above 32 µg/mL in series [1] and above 128 µg/mL in series [3] (Example 2, 20 strains). The MIC range in series [1] is above 32 µg/mL; in series [3] (Example 2, 20 strains) it was above 128 µg/mL. Moreover, the “AUC Ratio” value in series [2] was 0.0257. Further, the “Part of the dosing interval with free plasma concentration above the MIC of strain BAA-1795” value in series [2] is recorded as “more than 50%”. In series [2], the “Part of the dosing interval with plasma concentration above the MIC of strain BAA-1795” value is reported as “more than 50%”. The “AUC0-last, BALF” value in series [2] (iv, 150 mg/kg) is 1319 ng·h/mL. For the same compound, the “AUC0-last, plasma” value in series [2] (iv, 150 mg/kg) is 51289 ng·h/mL. The compound further had a Cl in series [2] (iv, 150 mg/kg) of 48.7 mL/min/kg. Further, the “MRT0-last, BALF” value in series [2] (iv, 150 mg/kg) was 103 min. For the same compound, the “MRT0-last, plasma” value in series [2] (iv, 150 mg/kg) stood at 26.3 min. Besides, the “T1/2, BALF” value in series [2] (iv, 150 mg/kg) worked out at 45.7 min. Also, in series [2] (iv, 150 mg/kg), the “T1/2, plasma” value stood at 73.8 min. Further, the MIC in series [3] (strain ARLG-1791), in series [3] (strain ARLG-1809), in series [3] (strain ARLG-1852), in series [3] (strain ARLG-1853), in series [3] (strain ARLG-1881) and in series [3] (strain ATCC 17978) was above 128 µg/mL in each case. Moreover, the MIC in series [3] (strain ATCC 19606), in series [3] (strain ATCC-BAA-1605), in series [3] (strain ATCC-BAA-1789), in series [3] (strain ATCC-BAA-1790), in series [3] (strain ATCC-BAA-1791) and in series [3] (strain ATCC-BAA-1792) was above 128 µg/mL in each case. For the same compound, the MIC in series [3] (strain ATCC-BAA-1793), in series [3] (strain ATCC-BAA-1794), in series [3] (strain ATCC-BAA-1795), in series [3] (strain ATCC-BAA-1796), in series [3] (strain ATCC-BAA-1797) and in series [3] (strain ATCC-BAA-1798) was above 128 µg/mL in each case. The MIC in series [3] (strain ATCC-BAA-1799) and in series [3] (strain ATCC-BAA-1800) was above 128 µg/mL in each case. In addition, the “MIC of the strain BAA-1795 (component in the combination)” value in series [3] came out at 2 µg/mL.

Consider `CC1(C)[C@H](C(=O)O)N2C(=O)C[C@H]2S1(=O)=O` [Sulbactam, (2S, 5R)-3,3-dimethyl-7-oxo-4-thia-1-azabicyclo [3.2.0] heptane-2-carboxylic acid 4,4-dioxide], for which, in series [4], the “Part of the dosing interval with plasma concentration above 2 μg/mL” value is recorded as 44% and the “Part of the dosing interval with plasma concentration above 4 μg/mL” value is recorded as 19%. Further, in series [3], the “MIC of the strain BAA-1795 (component in the combination)” value turned out to be 8 µg/mL. In addition, the “MIC90 of the single component in the combination” value in series [3] (sulbactam sodium:avibactam sodium = 4:1, concentration of the named component) is 16 µg/mL. Further, the “MIC50 of the single component in the combination” value in series [3] (sulbactam sodium:avibactam sodium = 4:1, concentration of the named component, Examples 1 and 2) came to 8 µg/mL. In addition, the Protein binding entry in series [5] was “approximately 5.2%”.
